# Values of other authors as cited in paper PMC9729727, “The effect of food on the pharmacokinetics of WXFL10203614, a potential selective JAK1 inhibitor, in healthy Chinese subjects” (Frontiers in Pharmacology, 2022).
# Like-named read-outs stand apart in the source and are kept apart here.
# Conditions: for Effect of food on AUC / Effect of food on Cmax: ref Shi et al., 2011, Mohamed et al., Anderson et al.; for Effect of the fed state on Cmax: ref Lamba et al., 2016, Shibata et al., 2021
# [1] = 3 mg immediate-release capsules, high-fat meal vs fasted, ref Mohamed et al., 2017
"Effect of food on AUC (2017, 2019)","Effect of food on Cmax (2017, 2019)",Effect of the fed state on Cmax,SMILES,other results
,,elevated,C[C@@H]1CCN(C(=O)CC#N)C[C@@H]1N(C)c1ncnc2[nH]ccc12 [tofacitinib],
little effect,partly reduced,,CC[C@@H]1CN(C(=O)NCC(F)(F)F)C[C@@H]1c1cnc2cnc3[nH]ccc3n12 [upadacitinib],Decrease of Cmax after a high-fat meal [1]: 23%; Effect of a high-fat meal on AUC [1]: not impacted

# The next lines start with the compound.
SMILES,"Effect of food on AUC (2017, 2019)","Effect of food on Cmax (2017, 2019)",Effect of the fed state on Cmax,other results
N#CC[C@H](C1CCCC1)n1cc(-c2ncnc3[nH]ccc23)cn1 [INCB018424],little effect,partly reduced,,
O=C(Nc1nc2cccc(-c3ccc(CN4CCS(=O)(=O)CC4)cc3)n2n1)C1CC1 [filgotinib],little effect,partly reduced,,"Effect of meals on systemic exposure (high- and low-fat meals, ref Anderson et al., 2019): little effect; Decrease of Cmax by meal (high-fat meal, ref Anderson et al., 2019): 20%; Decrease of Cmax by meal (low-fat meal, ref Anderson et al., 2019): 11%"
NC(=O)c1cnc2[nH]ccc2c1N[C@@H]1[C@@H]2CC3C[C@H]1C[C@@](O)(C3)C2 [peficitinib],,,elevated,
